For data set [1] the following is noted: ref 16 (Regenthal et al.), cited from earlier work; for Cmax,u: Cmax of unbound drug in humans; for Cmax: maximum steady-state plasma concentration in humans.
Data set [2] concerns the target T1, OCT2 (Homo sapiens, UniProt O15244). The experiment in a line: Inhibition of OCT2-mediated [3H]MPP+ uptake in HEK-OCT2 cells. As to conditions: MPP+ 50 μM, 3 min, net uptake HEK-OCT2 minus HEK-VC; for % Inhibition of OCT2-dependent MPP+ uptake at 20 µM (mean ± SEM): test drug 20 µM; for % Inhibition of OCT2-dependent MPP+ uptake at 200 µM (mean ± SEM): test drug 200 µM.

The subject of data set [3] is OCT2. Set-up: method as in earlier work. As to conditions: drug 20 μM; HEK 293 cells overexpressing OCT2; ref 7 (Kido et al.); cited from earlier work.
Data set [4] addresses T1, OCT2. The experiment in a line: Inhibition of OCT2-mediated [14C]metformin uptake in HEK-OCT2 cells. As to conditions: for % Inhibition of OCT2-dependent MF uptake at 200 µM (mean ± SEM) / IC50: human, pH 7.3.
In data set [5] the test system is OCT2. The note with it: cited from earlier work.
Data set [6] has as its target T1, OCT2. Nature of the data set: Time-dependent substrate uptake into HEK-OCT2 and vector control cells. In kind it is cell-based. More on the design: expressed in transfected cells; host or cells: HEK 293 cells, stably transfected (HEK-OCT2); vector control HEK-VC. As to conditions: metformin 1000 μM; for Time until OCT2-mediated uptake reached steady-state: HEK-OCT2 cells. As to the method: For the transport assays HEK cell lines stably transfected with human OCT2 (HEK-OCT2) or the vector only (HEK-VC) were used. The HEK-OCT2 cell line was established and characterized previously. HEK-OCT2 and HEK-VC cells were seeded in poly-D-lysine (Sigma Aldrich, Taufkirchen, Germany) coated 48-well-plates at a density of 1.2 x 10^5 cells/well. […] In a total incubation volume of 125 μL the final concentrations of the test drugs were 20 or 200 μM. […] Uptake was stopped by washing the cells three times with ice-cold uptake buffer. Afterwards, cells were lysed with 5 mM Tris buffer (pH 7.3) containing 0.1% Triton X-100. The intracellular accumulation of radioactivity was determined by liquid scintillation counting (PerkinElmer, Rodgau-Jügesheim, Germany) and protein concentration of each lysate was measured with bicinchonic acid assay (BCA Protein Assay Kit, Thermo Fisher Scientific, Waltham, MA, USA). We performed two to eight experiments each on at least two separate days, i.e., n = 4–16. […] The percentage of uptake inhibition was calculated as: Inhibition (%) = 100 –(V / V 0 * 100), where V and V 0 are the net uptake rates with and without test drug.
Data are presented as the mean ± standard error (4–8 experiments each on two to four separate days, i.e., n = 8–29).

T1 sequence (O15244 whole entry): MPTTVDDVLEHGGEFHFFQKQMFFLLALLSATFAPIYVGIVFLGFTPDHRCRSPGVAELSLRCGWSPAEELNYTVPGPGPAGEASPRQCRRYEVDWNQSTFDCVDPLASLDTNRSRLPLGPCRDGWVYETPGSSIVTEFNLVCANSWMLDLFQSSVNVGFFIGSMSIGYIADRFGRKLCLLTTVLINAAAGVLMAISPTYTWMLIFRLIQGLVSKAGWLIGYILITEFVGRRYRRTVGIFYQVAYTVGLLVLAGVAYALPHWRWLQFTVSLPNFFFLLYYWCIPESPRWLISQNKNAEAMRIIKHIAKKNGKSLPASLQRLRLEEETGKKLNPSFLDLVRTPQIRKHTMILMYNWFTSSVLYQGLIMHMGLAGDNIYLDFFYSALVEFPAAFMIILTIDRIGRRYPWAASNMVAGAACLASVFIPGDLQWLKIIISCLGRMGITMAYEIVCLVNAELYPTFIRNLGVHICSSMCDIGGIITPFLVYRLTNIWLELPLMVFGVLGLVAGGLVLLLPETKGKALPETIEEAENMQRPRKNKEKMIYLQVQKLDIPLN

On to `CN(C)CCC=C1c2ccccc2CCc2ccccc21` [Amitriptyline], for which, in data set [1], the “Cmax,u” value is 40 nM and the Cmax was 1100 nM. Besides, at OCT2 [2], the “% Inhibition of OCT2-dependent MPP+ uptake at 20 µM (mean ± SEM)” value (from here on “% Inhibition … at 20 µM (mean ± SEM)”) is 58.4 ± 2.8% and the “% Inhibition of OCT2-dependent MPP+ uptake at 200 µM (mean ± SEM)” value is listed as 97.8 ± 0.6%. Also, the “% Inhibition … at 20 µM (mean ± SEM)” value on OCT2 [2] (listed as amitriptyline) was “more than 50%”. In addition, the “Inhibition of OCT2-mediated ASP+ uptake” value in the data set on OCT2 [3] is listed as “more than 50%”. At OCT2 [4], the “Cmax,u / IC50” value was 0.08, the “% Inhibition of OCT2-dependent MF uptake at 200 µM (mean ± SEM)” value is 101.7 ± 2.2% and the IC50 was 510 nM. The “IC50 values, OCT2-mediated metformin transport (in words)” value at OCT2 [4] (potent inhibitors, confirmed previous findings [19]-[21]) is given as “low micromolar range”.

As to `CN/C(=N/CCSCc1nc[nH]c1C)NC#N` [Cimetidine], in the data set with OCT2 [5], the “Affinity for MATEs compared with OCT2” value is “higher affinity for MATEs than for OCT2” and the “Inhibitor of OCT2 (in words)” value was “rather weak inhibitor”.

On to `CN(C)CCC=C1c2ccccc2COc2ccccc21` [Doxepin], for which, in data set [1], the “Cmax,u” value is 250 nM and the Cmax was 1300 nM. In addition, the “Inhibition of OCT2-mediated ASP+ uptake” value in the data set on OCT2 [3] was “more than 50%”. Moreover, at OCT2 [4], the “% Inhibition of OCT2-dependent MF uptake at 200 µM (mean ± SEM)” value is 99.3 ± 0.7 and inhibition was half-maximal at 250 nM (IC50).

`C[n+]1ccc(-c2ccccc2)cc1` [MPP^+, 1-methyl-4-phenylpyridinium]: the “Uptake ratio OCT2 cells vs. vector control cells” value on OCT2 [6] (MPP+ 50 μM, 3 min, no inhibitor) worked out at 3.2. For the same molecule, the “Time until OCT2-mediated uptake reached steady-state” value at OCT2 [6] (MPP+ 50 μM) is listed as “approximately 15 min”.

For `CN(C)C(=N)N=C(N)N` [Metformin], the “Time until OCT2-mediated uptake reached steady-state” value on OCT2 [6] (MPP+ 50 μM) is on record as “approximately 15 min”. On OCT2 [6] (3 min, HEK-VC, no inhibitor), the “Uptake of metformin in vector control cells” value turned out to be 227 ± 22.1 pmol/mg/min. In addition, at OCT2 [6] (3 min, no inhibitor), the “Uptake of metformin in HEK-OCT2 cells” value was 5946 ± 294.0 pmol/mg/min.

For `CC(CN(C)C)CN1c2ccccc2CCc2ccccc21` (stereo not drawn) [Trimipramine], in data set [1], the “Cmax,u” value is 60 nM and the highest concentration (Cmax) was 610 nM. At OCT2 [2], the “% Inhibition … at 20 µM (mean ± SEM)” value was found to be 51.0 ± 10.2% and the “% Inhibition of OCT2-dependent MPP+ uptake at 200 µM (mean ± SEM)” value is reported as 98.6 ± 1.2%. For the same molecule, at OCT2 [2] (listed as trimipramine), the “% Inhibition … at 20 µM (mean ± SEM)” value is reported as “more than 50%”. Also, the “Inhibition of OCT2-mediated ASP+ uptake” value in the data set with OCT2 [3] was “more than 50%”. Moreover, on OCT2 [4], the “% Inhibition of OCT2-dependent MF uptake at 200 µM (mean ± SEM)” value was found to be 100.0 ± 0.8 and the IC50 worked out at 440 nM.

As a reminder, the Cmax is the peak of the concentration-time curve. One may read the IC50 as the concentration that gives 50% inhibition. Lower therefore signals greater potency.

The record behind these values is PMC4556614 (PLoS ONE, 2015).
